Experimental data: patent US8097615B2, “Neurofibrillary labels” (Wista Laboratories Ltd., priority 2001, dated 2012)
Values joined by “and” are separate entries in the source; they are usually repeats but may differ in a detail not shown here. Identical values can stand only once.

Experiments:
neurofibrillary tangles = assay: Fluorescence labelling of tangles (sections, ifI tangle suspensions); assay type: binding, human
Method: In ifI suspensions such as this, tangles can be seen by blue fluorescence which is […] from that associated with binding of contaminants in the preparation. […] (a) Chemical labelling with the biotinylated benzothiazole analogue shown as 4b in FIG. 4. PHFs were deposited on a carbon-coated grid after Pronase digestion, and incubated briefly with compound 4b, and then incubated with an anti-biotin antibody preparation that had been conjugated with colloidal gold. […] (b) mAb 423 immunolabelling of isolated PHFs after Pronase digestion., followed by incubation with a gold-conjugated goat anti-mouse second antibody as described in Novak et al. 1993 (Novak M, Kabat J, Wischik C M (1993) “Molecular characterisation of the minimal protease-resistant tau unit of the Alzheimers' disease paired helical filament”, EMBO J. 12: 365-370). As shown in this paper, mAb 423 labels PHFs derived from intracellular tangles (which preserve N-terminal tau immunoreactivity in the fuzzy outer coat) poorly, but Pronase digested PHFs strongly.
Serial 16 μm sections are cut from the hippocampus of a case dying with clinically and neuropathologically confirmed AD. […]
A Leitz fluorescence microscope fitted with a photo-multiplyer tube (Model MPV-2) was used to quantitate fluorescence emission. […]

PHFs = assay: Spectrofluorometry of primulin in solution and bound to PHFs (ifII); assay type: binding
Method: These measurements were carried out in a Perkin-Elmer spectrofluorimeter (model MPF-3). A concentration of ligand of 0.00001% was routinely used for all measurements. […] All measurements were therefore carried out at a standard excitation wavelength of 370 nm, and a constant slit width of 3 mm.
Further investigations into the relationship between aggregation-dependent tau ligands and tau aggregation inhibitors were carried out using primulin. Primulin in solution has a fluorescence peak at 520 nm. This shifts to 470 nm when primulin is bound within a pure preparation of PHFs (FIG. 6). […] Therefore, binding by such compounds is dependent on the polymerised state of tau found in the PHF, but is not present in free tau.
Compounds have been identified which disrupt the structure of the PHF and reverse the proteolytic stability of the PHF core (see WO 96/30766). Examples of such compounds are shown in accompanying FIG. 8. The present inventors have now identified that these compounds bind to tau at a specific binding site within the high affinity tau-tau binding domain.

tangle fragments = assay: Competitive binding assay: displacement of primulin fluorescence from tangle fragments (ifI); design: species or system human; settings: for competition with / displacement of other ligands at tangles: fluorescence end point
Method: IfI material was homogenised in a 0.2 ml glass homogeniser in PBS. To the suspension, test compounds were added to final concentrations ranging from 0.1% to 0.00001%. […] The suspensions were transferred to a glass slide, and examined by fluorescence microscopy across a range of fluorescence filter blocks, covering excitation and emission wavelengths between 380 nm and 570 nm. The end point sought in these observations was displacement of typical primulin fluorescence from tangle fragments.

excitation peak (PHFs; ligand 0.00001%): 370 nm | fluorescence (emission) peak in solution (PHFs; unbound): 515 nm and 520 nm | activity as ligand (tangle fragments): active ligands | competition with / displacement of other ligands at tangles (tangle fragments): displace this from tangles | competition with / displacement of other ligands at tangles (tangle fragments; listed as compound 1a): displace compound 1b at tangles
Compound: Cc1ccc2sc(-c3ccc4sc(-c5ccc(N)cc5)nc4c3)nc2c1S(=O)(=O)[O-].[Na+] [primulin]
labelling of tangles (neurofibrillary tangles): label tangles | fluorescence peak when bound within PHFs (PHFs; pure preparation of PHFs): 460 nm and 470 nm
